In a melting point compilation (Tetko et al.; mined from patent text by program, amines drawn as free bases though some values may be those of a salt):

First: COC(=O)c1cccc(Nc2ccc(OC)cc2)c1
Second: COc1ccc(-c2cc(C(=O)O)sc2-c2ccc(F)cc2)cc1
The melting point of the first is lower: 120 °C for the first, 204 to 206 °C for the second.

First: CS(=O)(=O)c1ccc(-c2cc(C(F)F)nn2-c2ccc(S(N)(=O)=O)cc2)cc1
Second: O=[N+]([O-])c1ccc(NS(=O)(=O)c2cccc3ccccc23)cc1
The melting point of the first is lower: 209 to 210 °C for the first, 210 to 215 °C for the second.

First: CC(Oc1ccc2nc(NC(=O)NCCC3CCN(C(=O)OC(C)(C)C)CC3)sc2c1)c1c(Cl)ccc(F)c1Cl (configuration not stated)
Second: CC(C)(C)OC(=O)Nc1cc(CO)c(C#Cc2ccc(F)cc2)cc1[N+](=O)[O-]
The melting point of the first is lower: 95 to 105 °C for the first, 198 °C for the second.

Compared with `COc1cccc(C=CC2=NN(C(C)=O)C(C)Cc3cc4c(cc32)OCO4)c1OC` (configuration not stated), `CCCCc1c(/C=C/C(=O)O)cc(OC)c2ccccc12` is higher in melting point: 125 to 128 °C for the first, 166 to 167 °C for the second.

Compared with `CCNC(=S)NC1=Nc2ccc(OC(F)(F)F)cc2CS1`, `Clc1ccc(NC2=Nc3ccccc3CS2)cc1Cl` is higher in melting point: 169 to 172 °C for the first, 207 to 208 °C for the second.

Compared with `NNC(=O)N(O)Cc1ccc(OCc2csc(-c3ccccc3)n2)cc1`, `Nc1cc(C(=O)OCc2ccccc2)ccc1OCc1ccccc1` is lower in melting point: 144 to 145 °C for the first, 79 to 81 °C for the second.

First: CCc1c(C)[nH]c(=O)c(N(C)C)c1Cc1cc(C)cc(C)c1
Second: CCOC(=O)c1cc2cc([Si](C)(C)C)ccc2n1Cc1cccc(F)c1
The melting point of the first is higher: 229 to 230 °C for the first, 80 to 82 °C for the second.

First: Cc1sc(N)c(C(=O)c2ccccn2)c1C
Second: CC(C)OC(=O)c1cnn(-c2ccccn2)c1S(N)(=O)=O
The melting point of the first is higher: 136 to 139 °C for the first, 123 to 124 °C for the second.

First: Cn1ncc2c(c1=O)S(=O)(=O)CCNC2Cc1ccccc1 (configuration not stated)
Second: O=C(CCc1ccccc1)CN1C(=O)CC1S(=O)c1ccccc1 (mixture of isomers)
The melting point of the first is higher: 288 to 290 °C for the first, 49 to 51 °C for the second.

First: O=C(Cl)c1ccncc1
Second: O=C(Cl)c1cc2ccccc2[nH]1
The melting point of the first is higher: 160 °C for the first, 120 °C for the second.

First: Nc1nc(Cl)nc2cnc(Oc3ccc(F)cc3F)cc12
Second: COc1ccc2nc3c(cc2c1)c(Cl)nn3C
The melting point of the first is higher: over 300 °C for the first, 138 to 139 °C for the second.

First: N#Cc1ccc(C(=C2CCCC2)c2ncc[nH]2)cc1
Second: CC(=O)c1ccc2ccc(C(=O)O)cc2c1
The melting point of the first is lower: 108 to 110 °C for the first, 224 to 228 °C for the second.

Compared with `O=Cc1csc(N2CCOCC2)n1`, `NOCC(O)CN1CCOCC1` (configuration not stated) is lower in melting point: 107 to 108 °C for the first, 83 to 85 °C for the second.

`CCCCN(C(=O)c1cc(C(C)(C)C)c(O)c(C(C)(C)C)c1)C1CC(C)(C)N(OC(C)=O)C(C)(C)C1` and `CC(C)(C)c1cc(CCc2ccccc2NC(=O)NCc2cccnc2)cc(C(C)(C)C)c1O` cannot be ordered by melting point: 161 to 164 °C for the first, 163 to 164 °C for the second.

Compared with `CCOC(=O)C(=CNC1CC1)C(=O)c1c(F)c(F)c(F)c(F)c1F`, `CC1CN(c2c(F)cc3c(=O)c(C(=O)O)cn(C4CC4)c3c2F)CC1CN` (configuration not stated) is higher in melting point: 85 to 86 °C for the first, 249 to 252 °C for the second.

First: Clc1nc(Cl)nc(-c2ccccc2)n1
Second: CNc1nc2ccccc2cc1[N+](=O)[O-]
The melting point of the first is lower: 118 to 120 °C for the first, 160 °C for the second.

Compared with `CCOC(=O)CS(=O)(=O)N(Cc1ccc(Cl)cc1)c1ccccc1CC(=O)OC`, `O=S(=O)(Nc1ccc(F)cc1C(=NOc1ccc(Cl)cc1)c1ccccc1)C(F)(F)F` is higher in melting point: 86 to 88 °C for the first, 90 to 93 °C for the second.

First: CN(C)Cc1cc(C(=O)c2cccn2C)cc(C(C)(C)C)c1O
Second: COC(=O)CCc1cc(N)c(O)c(C(C)(C)C)c1
The melting point of the first is higher: 174 °C for the first, 108 to 109 °C for the second.

First: COC(=O)c1cc(-c2ccccc2)c(=O)n2c1-c1sccc1S(=O)(=O)C=C2
Second: COC(=O)c1sc2c(c1N)c1ccccc1c(=O)n2-c1ccccc1
The melting point of the first is lower: 241 to 243 °C for the first, over 270 °C for the second.

First: O=C(Oc1ccccc1)c1cc(O)c(O)c(O)c1
Second: Nc1ccccc1C(=O)c1cccc(O)c1
The melting point of the first is higher: 190 to 191 °C for the first, 130 to 132 °C for the second.

First: COc1ccc(S(=O)(=O)C(Cc2cccnc2)(CC(C)C)C(=O)NO)cc1 (configuration not stated)
Second: CC(C)(C)SC1CN(C(N)=O)CC1NS(=O)(=O)c1ccc(Oc2ccccc2)cc1 (configuration not stated)
The melting point of the first is lower: 78 °C for the first, 132 to 133 °C for the second.

First: COc1cc(C(C)=O)ccc1OCCCN1CCC(C(O)(c2ccc(F)cc2)c2ccc(F)cc2)C1 (configuration not stated)
Second: COc1ccc(CN2CCC(c3cn(Cc4ccco4)c4ccccc34)CC2)cc1C(=O)O
The melting point of the first is lower: 44 to 46 °C for the first, 237 to 238 °C for the second.

Compared with `COC(=O)c1cscc1NC(=O)NCCCCCBr`, `COC(=O)c1ccc(C(C)O)cc1` (single isomer, unassigned; (+)) is lower in melting point: 92 to 93.5 °C for the first, 52 to 53 °C for the second.

First: Cc1ncoc1C(=O)c1ccoc1
Second: O=C1NCC(Cc2ccc(F)cc2)O1 (configuration not stated)
The melting point of the first is lower: 82 to 83.5 °C for the first, 120 to 121 °C for the second.

First: CC(=O)OCc1ccccc1C(=O)C(N)=O
Second: CON(Cc1ccccc1C)C(=O)C1=C(O)C(=O)N(C)C1
The melting point of the first is lower: 86.5 to 88 °C for the first, 153 to 154 °C for the second.

First: CCNc1cccnc1N1CCN(C(=O)c2ccc(C(=O)NC(C)(C)CO)cn2)CC1
Second: O=C(CSCCOc1ccccc1)NNC(=O)c1ccc(Cl)nc1
The melting point of the first is lower: 128 to 130 °C for the first, 136 to 138 °C for the second.

First: CCCCCCCCCCCCCCCCOc1cc(CO)cc(CO)c1
Second: CCCCCCCCC(O)CNCCCCCCNCC(O)CCCCCCCC (configuration not stated)
The melting point of the first is lower: 90 °C for the first, 118 to 127 °C for the second.

Compared with `CCOc1cc(-c2c(C(=O)OC)c(C(=O)OC)c(O)c3cc(OC)c(OC)c(OC)c23)ccc1OC`, `COc1cc(C=C(CC(=O)N2CCOCC2)C(=O)O)cc(OC)c1OC` is lower in melting point: 158 °C for the first, 135 to 138 °C for the second.

First: O=c1oc2ccccc2c(O)c1C1CC(c2ccc(-c3ccc(OCc4ccc(Br)cc4)cc3)cc2)Cc2ccccc21 (configuration not stated)
Second: CCc1cc(OCc2ccc(-c3ccccc3-c3nnn(C(c4ccccc4)(c4ccccc4)c4ccccc4)n3)cc2)c2c(n1)CCCN2C(=O)C(F)(F)F
The melting point of the first is higher: 240 °C for the first, 93 to 95 °C for the second.

First: O=C1NC(=O)[C@@]2(C[C@@H](C(=O)NCCN3CCN(CC=Cc4ccccc4)CC3)Oc3ccc(F)cc32)N1
Second: CN(C)C(=O)Cc1ccc2[nH]cc(CCN3C(=O)c4ccccc4C3=O)c2c1
The melting point of the first is lower: 133 to 135 °C for the first, 193 to 194 °C for the second.

First: Cn1cc(-c2cc(-c3cnc4[nH]ccc4c3)ccn2)n(-c2ccc(CC#N)cc2)c1=O
Second: Cc1nc2cc(Oc3cc(-c4ccc(C(F)(F)F)cc4)ccn3)ccc2s1
The melting point of the first is higher: 252 °C for the first, 160 to 164 °C for the second.

Compared with `COc1cc(Nc2c(C#N)cnc3cc(-c4ccc(CCN5CCOCC5)cc4)c(OC)cc23)c(Cl)cc1Cl`, `COc1cc(Nc2nsc(-c3ccccc3)n2)ccc1-c1cnco1` is higher in melting point: 215 to 217 °C for the first, 260 to 261 °C for the second.

Compared with `CC(=O)O[C@@](Cn1cncn1)(c1ccccc1F)[C@@H](C)n1ccnn1`, `Cc1ccccc1CC[C@H]([C@H](C)O)n1cnc(C(N)=O)c1` is lower in melting point: 133 to 134 °C for the first, 60 to 62 °C for the second.

Compared with `NC(Cc1cnc2ccccc2c1)C(=O)O` (configuration not stated), `CC(=O)SCC(Cc1ccccc1)C(=O)NN1CCCCCC1` (configuration not stated) is lower in melting point: 241 to 243 °C for the first, 126 °C for the second.

Compared with `Cc1ccc(N2CCN(Cc3n[nH]c4c(Cl)cccc34)CC2)cc1`, `Cc1ccc(S(=O)(=O)NCC2(N3CCN(C)CC3)CCCCC2)cc1` is lower in melting point: 187 to 188 °C for the first, 128 to 130 °C for the second.

First: CCC(=O)OCOC(=O)C1=C(C)N(COC)C(C)=C(C(=O)O)[C@@H]1c1cccc([N+](=O)[O-])c1
Second: CCOC(=O)C1=C(C)NC(CSCCOC(C)=O)=C(C(=O)OCC)C1c1cccc([N+](=O)[O-])c1 (configuration not stated)
The melting point of the first is lower: 54 to 56 °C for the first, 84 to 86 °C for the second.

First: CCCc1nccn1-c1nc(-c2ccc(Cl)cc2)c(CCC(=O)O)o1
Second: CCCCCCc1cc2c(s1)-n1c(C)nnc1CN=C2c1ccc(C)cc1
The melting point of the first is higher: 174 to 175 °C for the first, 74 to 76 °C for the second.

Compared with `C=CCOc1ccc(C)c2c1C(C)(C)C(=O)N2Cc1ccccc1`, `COc1ccc2c(c1)C(c1ccccc1)NC(=O)N2CC(F)(F)F` (configuration not stated) is higher in melting point: 107 to 108 °C for the first, 168 to 169 °C for the second.

Compared with `CCCCC#CCCOc1c(I)cc(I)cc1I`, `CCCCCN1CC[C@@H](c2ccc(Br)cc2)[C@H](CO)C1` (racemic) is higher in melting point: 45 to 49 °C for the first, 128 to 130 °C for the second.

First: COc1ccc(/C=C/C(=O)/C=C/c2ccc(OC(F)(F)F)cc2)cc1
Second: CON(C)C(=O)/C=C/C(=C(c1ccc(F)cc1)c1ccc(F)cc1)C(C)C
The melting point of the first is lower: 105 to 107 °C for the first, 109 to 110 °C for the second.

First: COC(CCCCC(N)=O)OC
Second: CCCc1nn(C)c(C(N)=O)c1NC(=O)c1cc([N+](=O)[O-])cnc1OCC
The melting point of the first is lower: 57 °C for the first, 251 to 253 °C for the second.

Compared with `Oc1ccc2c(c1O)OCC(c1cccc(C(F)(F)F)c1)C2` (configuration not stated), `O=[N+]([O-])c1cc(C(F)(F)F)ccc1-c1ccno1` is lower in melting point: 99 to 100 °C for the first, 62 to 63 °C for the second.

Compared with `CCCC(=O)OC1CC(n2cc(CC)c(=O)[nH]c2=O)OC1CNC(=O)Cc1c(Cl)cccc1Cl` (configuration not stated), `O=C1CCC(Cn2c(=O)[nH]c3ncc(-c4ccc(O)cc4)nc32)N1` (configuration not stated) is higher in melting point: 130 to 132 °C for the first, 338 to 340 °C for the second.

First: O=C(O)C(Cc1ccccc1)Oc1c(Br)cc(-c2c(Br)ccc3sc4ccccc4c23)cc1Br (configuration not stated)
Second: O=S(=O)(CC(O)(CCl)c1ccccc1)c1ccccc1 (configuration not stated)
The melting point of the first is lower: 98 to 100 °C for the first, 110 °C for the second.

First: CC(=O)N[C@H]1C=C[C@@H](CO)C1
Second: CC(C)C(CN=C(O)C(Cl)=C(Cl)C(=O)O)c1ccc(Cl)cc1 (configuration not stated)
The melting point of the first is lower: 77 to 80 °C for the first, 91 to 92 °C for the second.

Compared with `Cc1nnc(-c2ccc3occ(-c4ccc(S(C)=O)c(F)c4)c3c2)o1` (configuration not stated), `CSc1ccc(Oc2ccc(N)cc2)c(C)c1` is lower in melting point: 168 to 169 °C for the first, 162 °C for the second.

Compared with `Cc1cccc(OC(=O)C(=O)Oc2cccc(C)c2)c1`, `COc1cccc(C2=CC(=O)N(C)C2=O)c1` is higher in melting point: 101 to 103 °C for the first, 138 to 146 °C for the second.

First: c1ccc2c(c1)[C@H](N1CCCCC1)C[C@@H]2N1CCCCC1
Second: CC12C=CC(=O)C=C1CCC1C3CC(OCCOC4CCCCO4)C(O)(C(=O)CCl)C3(C)CC(O)C12F (configuration not stated)
The melting point of the first is lower: 114 to 115 °C for the first, 168 to 170 °C for the second.

First: Cn1nc(C2CCCC2)cc1N
Second: Cn1nc(C(F)(F)F)n(-c2ccc([N+](=O)[O-])cc2Cl)c1=S
The melting point of the first is lower: 149 to 150 °C for the first, 152 to 155 °C for the second.

Compared with `COc1ccc(Cn2ncnc2CO)cc1`, `N#Cc1ccc2c(c1)c(-c1ccccc1)nn2CCCBr` is higher in melting point: 95 to 100 °C for the first, 100 to 102 °C for the second.

First: CC(C)C(C)(C(N)=O)N1C(=O)C=CC1=O (configuration not stated)
Second: COc1ccc(S(=O)(=O)N2C(=O)C(c3ccccc3OC)(N3C[C@H](OC)C[C@H]3C(=O)N(C)C)c3cc(Cl)ccc32)c(OC)c1 (some centres not stated)
The melting point of the first is lower: 138 to 140 °C for the first, 189 to 191 °C for the second.
